Laboratory results from US11498899B2, “Nitrone herbicides” (FMC Corporation, priority 2016, dated 2022).

Experiments:
[1] = test system: kochia (Kochia scoparia); assay: Test A preemergence, visual injury rating 0-100; assay type: in vivo
[2] = test system: foxtail, green (green foxtail, Setaria viridis); assay: Test A preemergence, visual injury rating 0-100; assay type: in vivo
[3] = test system: pigweed (Amaranthus retroflexus); assay: Test A preemergence, visual injury rating 0-100; assay type: in vivo
[4] = test system: ryegrass, Italian (Italian ryegrass, Lolium multiflorum); assay: Test A preemergence, visual injury rating 0-100; assay type: in vivo
[5] = test system: ragweed (common ragweed, Ambrosia elatior); assay: Test A preemergence, visual injury rating 0-100; assay type: in vivo
[6] = test system: ducksalad (Heteranthera limosa); assay: Test B flooded paddy test, visual rating 0-100; details: Flood, 250 g ai/ha, applied to paddy water, rated after 13 to 15 days
[7] = test system: barnyardgrass (Echinochloa crus-galli); assay: Test B flooded paddy test, visual rating 0-100; details: Flood, 250 g ai/ha, applied to paddy water, rated after 13 to 15 days
[8] = test system: kochia (Kochia scoparia); assay: Test A postemergence, visual injury rating 0-100; assay type: in vivo; details: 0 to 100 scale
[9] = test system: foxtail, green (green foxtail, Setaria viridis); assay: Test A postemergence, visual injury rating 0-100; assay type: in vivo; details: 0 to 100 scale
[10] = test system: wheat (Triticum aestivum); assay: Test A postemergence, visual injury rating 0-100; assay type: in vivo; details: 0 to 100 scale
[11] = test system: pigweed (Amaranthus retroflexus); assay: Test A postemergence, visual injury rating 0-100; assay type: in vivo; details: 0 to 100 scale
[12] = test system: ryegrass, Italian (Italian ryegrass, Lolium multiflorum); assay: Test A postemergence, visual injury rating 0-100; assay type: in vivo; details: 0 to 100 scale
[13] = test system: blackgrass (Alopecurus myosuroides); assay: Test A postemergence, visual injury rating 0-100; assay type: in vivo; details: 0 to 100 scale
[14] = test system: ragweed (common ragweed, Ambrosia elatior); assay: Test A postemergence, visual injury rating 0-100; assay type: in vivo; details: 0 to 100 scale
[15] = test system: barnyardgrass (Echinochloa crus-galli); assay: Test A postemergence, visual injury rating 0-100; assay type: in vivo; details: 0 to 100 scale
[16] = test system: corn (Zea mays); assay: Test A postemergence, visual injury rating 0-100; assay type: in vivo; details: 0 to 100 scale
[17] = test system: barnyardgrass (Echinochloa crus-galli); assay: Test A preemergence, visual injury rating 0-100 (0 no effect, 100 complete control); assay type: in vivo; details: for Barnyardgrass plant response rating (0 to 100 scale): 125 g ai/ha; for Barnyardgrass plant response rating: 500 g ai/ha, 0 to 100 scale
[18] = test system: rice (Oryza sativa); assay: Test B flooded paddy test, visual rating 0-100 (0 no effect, 100 complete control); details: Flood, 250 g ai/ha, applied to paddy water, rated after 13 to 15 days

CC1=[N+]([O-])C(C(=O)Nc2cccc(F)c2F)C(c2ccc(C)c(C)c2)C1 (racemic) [Compound 24]
Kochia plant response rating (0 to 100 scale) ([1]; 125 g ai/ha): 40
Kochia plant response rating ([1]; 500 g ai/ha, 0 to 100 scale): 90
Foxtail, Green plant response rating (0 to 100 scale) ([2]; 125 g ai/ha): 90
Foxtail, Green plant response rating ([2]; 500 g ai/ha, 0 to 100 scale): 90
Pigweed plant response rating (0 to 100 scale) ([3]; 125 g ai/ha): 20
Pigweed plant response rating ([3]; 500 g ai/ha, 0 to 100 scale): 50
Ryegrass, Italian plant response rating (0 to 100 scale) ([4]; 125 g ai/ha): 40
Ryegrass, Italian plant response rating ([4]; 500 g ai/ha, 0 to 100 scale): 70
Ragweed plant response rating (0 to 100 scale) ([5]; 125 g ai/ha): 60
Ragweed plant response rating ([5]; 500 g ai/ha, 0 to 100 scale): 80
Ducksalad plant response rating (0 to 100 scale) [6]: 85
Barnyardgrass plant response rating (0 to 100 scale) [7]: 70
Kochia plant response rating ([8]; 125 g ai/ha): 50
Kochia plant response rating ([8]; 500 g ai/ha): 70
Foxtail, Green plant response rating ([9]; 125 g ai/ha): 80
Foxtail, Green plant response rating ([9]; 500 g ai/ha): 90
Wheat plant response rating ([10]; 125 g ai/ha): 50
Wheat plant response rating ([10]; 500 g ai/ha): 90
Pigweed plant response rating ([11]; 125 g ai/ha): 30
Pigweed plant response rating ([11]; 500 g ai/ha): 60
Ryegrass, Italian plant response rating ([12]; 125 g ai/ha): 90
Ryegrass, Italian plant response rating ([12]; 500 g ai/ha): 80
Blackgrass plant response rating ([13]; 125 g ai/ha): 20
Blackgrass plant response rating ([13]; 500 g ai/ha): 60
Ragweed plant response rating ([14]; 125 g ai/ha): 20
Ragweed plant response rating ([14]; 500 g ai/ha): 50
Barnyardgrass plant response rating ([15]; 125 g ai/ha): 90
Barnyardgrass plant response rating ([15]; 500 g ai/ha): 90
Corn plant response rating ([16]; 125 g ai/ha): 50
Corn plant response rating ([16]; 500 g ai/ha): 90
Barnyardgrass plant response rating (0 to 100 scale) [17]: 90
Barnyardgrass plant response rating [17]: 90
Rice plant response rating (0 to 100 scale) [18]: 0

CC1=[N+]([O-])C(C(=O)Nc2cccc(F)c2Cl)C(c2ccc(C(F)(F)F)cc2)C1 (racemic) [Compound 31]
Kochia plant response rating (0 to 100 scale) ([1]; 125 g ai/ha): 0
Kochia plant response rating (0 to 100 scale) ([1]; 500 g ai/ha): 80
Foxtail, Green plant response rating (0 to 100 scale) ([2]; 125 g ai/ha): 90
Foxtail, Green plant response rating (0 to 100 scale) ([2]; 500 g ai/ha): 100
Pigweed plant response rating (0 to 100 scale) ([3]; 125 g ai/ha): 0
Pigweed plant response rating (0 to 100 scale) ([3]; 500 g ai/ha): 60
Ryegrass, Italian plant response rating (0 to 100 scale) ([4]; 125 g ai/ha): 0
Ryegrass, Italian plant response rating (0 to 100 scale) ([4]; 500 g ai/ha): 20
Ragweed plant response rating (0 to 100 scale) ([5]; 125 g ai/ha): 0
Ragweed plant response rating (0 to 100 scale) ([5]; 500 g ai/ha): 90
Ducksalad plant response rating (0 to 100 scale) [6]: 0
Barnyardgrass plant response rating (0 to 100 scale) [7]: 0
Kochia plant response rating ([8]; 125 g ai/ha): 0
Kochia plant response rating ([8]; 500 g ai/ha): 10
Foxtail, Green plant response rating ([9]; 125 g ai/ha): 40
Foxtail, Green plant response rating ([9]; 500 g ai/ha): 90
Wheat plant response rating ([10]; 125 g ai/ha): 0
Wheat plant response rating ([10]; 500 g ai/ha): 40
Pigweed plant response rating ([11]; 125 g ai/ha): 0
Pigweed plant response rating ([11]; 500 g ai/ha): 30
Ryegrass, Italian plant response rating ([12]; 125 g ai/ha): 20
Ryegrass, Italian plant response rating ([12]; 500 g ai/ha): 20
Blackgrass plant response rating ([13]; 125 g ai/ha): 20
Blackgrass plant response rating ([13]; 500 g ai/ha): 80
Ragweed plant response rating ([14]; 125 g ai/ha): 0
Ragweed plant response rating ([14]; 500 g ai/ha): 20
Barnyardgrass plant response rating ([15]; 125 g ai/ha): 30
Barnyardgrass plant response rating ([15]; 500 g ai/ha): 90
Corn plant response rating ([16]; 125 g ai/ha): 0
Corn plant response rating ([16]; 500 g ai/ha): 10
Barnyardgrass plant response rating (0 to 100 scale) [17]: 50
Barnyardgrass plant response rating [17]: 100
Rice plant response rating (0 to 100 scale) [18]: 0

CC1=[N+]([O-])C(C(=O)Nc2cccc(F)c2C#N)C(c2ccc(C(F)(F)F)cc2)C1 (racemic) [Compound 34]
Kochia plant response rating (0 to 100 scale) ([1]; 125 g ai/ha): 0
Kochia plant response rating (0 to 100 scale) ([1]; 500 g ai/ha): 90
Foxtail, Green plant response rating (0 to 100 scale) ([2]; 125 g ai/ha): 40
Foxtail, Green plant response rating (0 to 100 scale) ([2]; 500 g ai/ha): 100
Pigweed plant response rating (0 to 100 scale) ([3]; 125 g ai/ha): 0
Pigweed plant response rating (0 to 100 scale) ([3]; 500 g ai/ha): 90
Ryegrass, Italian plant response rating (0 to 100 scale) ([4]; 125 g ai/ha): 0
Ryegrass, Italian plant response rating (0 to 100 scale) ([4]; 500 g ai/ha): 0
Ragweed plant response rating (0 to 100 scale) ([5]; 125 g ai/ha): 50
Ragweed plant response rating (0 to 100 scale) ([5]; 500 g ai/ha): 100
Ducksalad plant response rating (0 to 100 scale) [6]: 50
Barnyardgrass plant response rating (0 to 100 scale) [7]: 35
Kochia plant response rating ([8]; 125 g ai/ha): 0
Kochia plant response rating ([8]; 500 g ai/ha): 30
Foxtail, Green plant response rating ([9]; 125 g ai/ha): 0
Foxtail, Green plant response rating ([9]; 500 g ai/ha): 80
Wheat plant response rating ([10]; 125 g ai/ha): 0
Wheat plant response rating ([10]; 500 g ai/ha): 50
Pigweed plant response rating ([11]; 125 g ai/ha): 30
Pigweed plant response rating ([11]; 500 g ai/ha): 70
Ryegrass, Italian plant response rating ([12]; 125 g ai/ha): 0
Ryegrass, Italian plant response rating ([12]; 500 g ai/ha): 30
Blackgrass plant response rating ([13]; 125 g ai/ha): 40
Blackgrass plant response rating ([13]; 500 g ai/ha): 80
Ragweed plant response rating ([14]; 125 g ai/ha): 0
Ragweed plant response rating ([14]; 500 g ai/ha): 50
Barnyardgrass plant response rating ([15]; 125 g ai/ha): 30
Barnyardgrass plant response rating ([15]; 500 g ai/ha): 70
Corn plant response rating ([16]; 125 g ai/ha): 0
Corn plant response rating ([16]; 500 g ai/ha): 0
Barnyardgrass plant response rating (0 to 100 scale) [17]: 80
Barnyardgrass plant response rating [17]: 100
Rice plant response rating (0 to 100 scale) [18]: 0

O=C(Nc1cccc(F)c1F)C1C(c2ccccc2)CC(C(F)(F)F)=[N+]1[O-] (racemic) [Compound 35]
Kochia plant response rating (0 to 100 scale) ([1]; 125 g ai/ha): 0
Kochia plant response rating (0 to 100 scale) ([1]; 500 g ai/ha): 0
Foxtail, Green plant response rating (0 to 100 scale) ([2]; 125 g ai/ha): 0
Foxtail, Green plant response rating (0 to 100 scale) ([2]; 500 g ai/ha): 0
Pigweed plant response rating (0 to 100 scale) ([3]; 125 g ai/ha): 0
Pigweed plant response rating (0 to 100 scale) ([3]; 500 g ai/ha): 0
Ryegrass, Italian plant response rating (0 to 100 scale) ([4]; 125 g ai/ha): 0
Ryegrass, Italian plant response rating (0 to 100 scale) ([4]; 500 g ai/ha): 0
Ragweed plant response rating (0 to 100 scale) ([5]; 125 g ai/ha): 0
Ragweed plant response rating (0 to 100 scale) ([5]; 500 g ai/ha): 0
Ducksalad plant response rating (0 to 100 scale) [6]: 0
Barnyardgrass plant response rating (0 to 100 scale) [7]: 0
Kochia plant response rating ([8]; 125 g ai/ha): 0
Kochia plant response rating ([8]; 500 g ai/ha): 0
Foxtail, Green plant response rating ([9]; 125 g ai/ha): 0
Foxtail, Green plant response rating ([9]; 500 g ai/ha): 0
Wheat plant response rating ([10]; 125 g ai/ha): 0
Wheat plant response rating ([10]; 500 g ai/ha): 0
Pigweed plant response rating ([11]; 125 g ai/ha): 0
Pigweed plant response rating ([11]; 500 g ai/ha): 0
Ryegrass, Italian plant response rating ([12]; 125 g ai/ha): 0
Ryegrass, Italian plant response rating ([12]; 500 g ai/ha): 0
Blackgrass plant response rating ([13]; 125 g ai/ha): 0
Blackgrass plant response rating ([13]; 500 g ai/ha): 0
Ragweed plant response rating ([14]; 125 g ai/ha): 0
Ragweed plant response rating ([14]; 500 g ai/ha): 0
Barnyardgrass plant response rating ([15]; 125 g ai/ha): 0
Barnyardgrass plant response rating ([15]; 500 g ai/ha): 0
Corn plant response rating ([16]; 125 g ai/ha): 0
Corn plant response rating ([16]; 500 g ai/ha): 0
Barnyardgrass plant response rating (0 to 100 scale) [17]: 0
Barnyardgrass plant response rating [17]: 0
Rice plant response rating (0 to 100 scale) [18]: 0
